Source: patent publication US11512053B2, “Arginine methyltransferase inhibitors and uses thereof” (priority 2013, dated 2022)

What follows are molecules tested against T1, human CARM1 (PRMT4) (Flag- and His-tagged) (Homo sapiens, UniProt Q86X55) (assay: CARM1 Biochemical Assay (3H-SAM Flashplate, peptide substrate)). Details: not given.
T1 construct: Flag-CARM1-His; made in house; host or cells: HEK 293F cells (BacMam baculovirus)
T1 sequence (Q86X55 1-585 isoform Q86X55-1): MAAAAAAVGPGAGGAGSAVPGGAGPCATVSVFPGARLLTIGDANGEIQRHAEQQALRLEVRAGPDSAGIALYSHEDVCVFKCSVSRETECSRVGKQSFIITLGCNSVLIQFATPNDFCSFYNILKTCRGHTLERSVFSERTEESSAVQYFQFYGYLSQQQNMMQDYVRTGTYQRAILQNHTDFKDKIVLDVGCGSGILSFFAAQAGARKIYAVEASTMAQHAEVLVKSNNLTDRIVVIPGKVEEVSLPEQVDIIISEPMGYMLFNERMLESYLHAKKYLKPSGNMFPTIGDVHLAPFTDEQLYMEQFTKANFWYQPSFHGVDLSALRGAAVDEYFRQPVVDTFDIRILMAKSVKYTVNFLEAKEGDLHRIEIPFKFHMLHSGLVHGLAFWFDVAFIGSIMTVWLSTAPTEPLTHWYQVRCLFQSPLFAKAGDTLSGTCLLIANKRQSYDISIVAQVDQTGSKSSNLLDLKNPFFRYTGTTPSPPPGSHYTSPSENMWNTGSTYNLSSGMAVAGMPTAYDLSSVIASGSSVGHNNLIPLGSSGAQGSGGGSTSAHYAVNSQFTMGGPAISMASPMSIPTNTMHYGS
Description: General Materials. S-adenosylmethionine (SAM), S-adenosylhomocysteine (SAH), bicine, Tween20, dimethylsulfoxide (DMSO), bovine skin gelatin (BSG), sodium butyrate and Tris(2-carboxyethyl)phosphine hydrochloride solution (TCEP) were purchased from Sigma-Aldrich at the highest level of purity possible. ^3H-SAM was purchase from American Radiolabeled Chemicals with a specific activity of 80 Ci/mmol. 384-well streptavidin Flashplates were purchased from PerkinElmer.
Substrates. Peptide representative of human histone H3 residues 16-30 was synthesized with an N-terminal linker-affinity tag motif and a C-terminal amide cap by 21st Century Biochemicals. The peptide was purified by high-performance liquid chromatography (HPLC) to greater than 95% purity and confirmed by liquid chromatography mass spectrometry (LC-MS). The sequence was Biot-Ahx-[…]-amide and contained a monomethylated arginine at position 26 (SEQ ID NO.:14).
Molecular Biology: Human CARM1 (PRMT4) (NM_199141.1) transcript clone was amplified from an HEK 293 cDNA library, incorporating a flanking 5′ sequence encoding a FLAG tag ([…]) (SEQ ID NO.:6) fused directly to Ala 2 of CARM1 and 3′ sequence encoding a hexa His sequence ([…]) (SEQ ID NO.:15) fused directly to Ser 608. The gene sequence encoding isoform1 containing a deletion of amino acids 539-561 was amplified subsequently and subcloned into pFastBacMam (Viva Biotech).
Protein Expression. Recombinant baculovirus were generated according to Bac-to-Bac kit instructions (Life Technologies). […] Infections were carried out at 37° C. for 48 hours, harvested by centrifugation, and stored at −80° C. for purification.
Protein Purification. […] Column was washed with 500 mM NaCl in buffer A and Flag-CARM1-His was eluted with 200 ug/ml FLAG peptide in buffer A. Pooled fractions were dialyzed in 20 mM Tris, 150 mM NaCl, 5% glycerol and 1 mM DTT, pH 7.8. The purity of recovered protein was 94.
General Procedure for CARM1 Enzyme Assays on Peptide Substrates. The assays were all performed in a buffer consisting of 20 mM Bicine (pH=7.6), 1 mM TCEP, 0.005% BSG, and 0.002% Tween 20, prepared on the day of use. Compounds in 100% DMSO (1 ul) were spotted into a polypropylene 384-well V-bottom plates (Greiner) using a Platemate Plus outfitted with a 384-channel head (Thermo Scientific). DMSO (1 ul) was added to Columns 11, 12, 23, 24, rows A-H for the maximum signal control and 1 ul of SAH, a known product and inhibitor of CARM1, was added to columns 11, 12, 23, 24, rows I-P for the minimum signal control. A cocktail (40 ul) containing the CARM1 enzyme was added by Multidrop Combi (Thermo-Fisher). The compounds were allowed to incubate with CARM1 for 30 min at room temperature, then a cocktail (10 ul) containing ^3H-SAM and peptide was added to initiate the reaction (final volume=51 ul). The final concentrations of the components were as follows: CARM1 was 0.25 nM, ^3H-SAM was 30 nM, peptide was 250 nM, SAH in the minimum signal control wells was 1 mM, and the DMSO concentration was 2%. The assays were stopped by the addition of non-radiolabeled SAM (10 ul) to a final concentration of 300 uM, which dilutes the ^3H-SAM to a level where its incorporation into the peptide substrate is no longer detectable. 50 ul of the reaction in the 384-well polypropylene plate was then transferred to a 384-well Flashplate and the biotinylated peptides were allowed to bind to the streptavidin surface for at least 1 hour before being washed once with 0.1% Tween20 in a Biotek ELx405 plate washer. The plates were then read in a PerkinElmer TopCount plate reader to measure the quantity of ^3H-labeled peptide bound to the Flashplate surface, measured as disintegrations per minute (dpm) or alternatively, referred to as counts per minute (cpm).
Where dpm=disintegrations per minute, cmpd=signal in assay well, and min and max are the respective minimum and maximum signal controls. […]

| Compound | IC50 |
| --- | --- |
| CN(CCN)Cc1c[nH]nc1C1=CCOCC1 [Compound 10] | > 10000 nM |
| CN(CCN)Cc1c[nH]nc1C1CC1 [Compound 12] | > 10000 nM |
| CC(C)c1n[nH]cc1CN(C)CCN [Compound 21] | > 10000 nM |

Same assay, conditions: single experiment or average of multiple experiments

| IC50 | Compound |
| --- | --- |
| 260 nM | CNCCN(C)Cc1c[nH]nc1C#Cc1cccc(OC)c1 [Compound 1] |
| 570 nM | CNCCN(C)Cc1c[nH]nc1/C=C/c1ccc(C(F)(F)F)cc1 [Compound 6] |
| 50 nM | COc1cc(/C=C/c2n[nH]cc2CN(C)CCN)cc(OC)c1 [Compound 11] |
| 200 nM | CN(CCN)Cc1c[nH]nc1/C=C/c1ccc(F)cc1F [Compound 13] |
| 310 nM | CN(CCN)Cc1c[nH]nc1/C=C/c1cc(F)cc(F)c1 [Compound 15] |
| 110 nM | CN(CCN)Cc1c[nH]nc1/C=C/c1cccc(C(F)(F)F)c1 [Compound 16] |
| 90 nM | COc1cccc(/C=C/c2n[nH]cc2CN(C)CCN)c1 [Compound 17] |
| 100 nM | CN(CCN)Cc1c[nH]nc1/C=C/c1ccc(C(F)(F)F)cc1 [Compound 18] |
| 3780 nM | COC/C=C/c1n[nH]cc1CN(C)CCN [Compound 19] |
| 250 nM | CN(CCN)Cc1c[nH]nc1/C=C/c1cccc(F)c1 [Compound 20] |
| 3770 nM | CN(CCN)Cc1c[nH]nc1C1CCCCC1 [Compound 22] |

Further lines, the molecule ahead of its results:

| Compound | IC50 |
| --- | --- |
| CNCCN(C)Cc1c[nH]nc1C#Cc1ccc(C(C)(C)C)cc1 [Compound 2] | 110 nM |
| CNCCN(C)Cc1c[nH]nc1C#Cc1ccc(F)cc1 [Compound 4] | 500 nM |
| CNCCN(C)Cc1c[nH]nc1/C=C/c1ccc(-c2ccccc2)cc1 [Compound 5] | 310 nM |
| CNCCN(C)Cc1c[nH]nc1/C=C/c1ccc(OC)cc1 [Compound 7] | 90 nM |
| Cc1ccc(/C=C/c2n[nH]cc2CN(C)CCN)cc1 [Compound 8] | 370 nM |
| CN(CCN)Cc1c[nH]nc1C1=CCOCC1 [Compound 10] | > 10000 nM |
| CN(CCN)Cc1c[nH]nc1C1CC1 [Compound 12] | > 10000 nM |
| CN(CCN)Cc1c[nH]nc1/C=C/c1cc(C(F)(F)F)cc(C(F)(F)F)c1 [Compound 14] | 510 nM |
| CC(C)c1n[nH]cc1CN(C)CCN [Compound 21] | > 10000 nM |
| CN(CCN)Cc1c[nH]nc1CCc1ccc(F)cc1 [Compound 23, N^1-((3-(4-fluorophenethyl)-1H-pyrazol-4-yl)methyl)-N^1-methylethane-1,2-diamine] | 2780 nM |
